# Source: paper PMC8252455, “Prediction of a clinically effective dose of THY1773, a novel V 1B receptor antagonist, based on preclinical data” (Biopharmaceutics & Drug Disposition, 2021)
# Several values for one entry are separate records, joined by “and”; a condition that tells them apart may be missing. Identical values can stand only once.
# How the values were obtained:
# [1] = Plasma protein binding by equilibrium dialysis, rat plasma; format: in vitro ADME; conditions: 300 ng/ml
# Experimental: (§1) The plasma protein binding of THY1773 in rats, dogs, and humans was evaluated by an equilibrium dialysis method using a 96‐well equilibrium dialysis plate (HTDialysis) with a 12–14 kDa cut‐off dialysis membrane. THY1773 was dissolved in dimethyl sulfoxide, and spiked with rat, dog, or human plasma at a final concentration of 300 ng/ml. An aliquot of plasma containing THY1773 and sodium phosphate buffer (pH 7.4) was added into the donor side and the receiver side of each designated well, respectively. After incubation for 6 h at a rate of 50 oscillation/min at 37°C in an air incubator, an aliquot of each side of each well was collected and mixed with acetonitrile/methanol (9:1, vol/vol) containing the IS. Each sample was centrifuged at 3974 × g for 10 min at 4°C to remove the precipitated proteins, and the resultant supernatants were subjected to LC‐MS/MS analysis. The protein binding (%) was calculated using the Boudinot formula (Boudinot & Jusko, 1984).
# [2] = Phase 1 single ascending dose study of TS-121 capsules; format: in vivo, human
# Experimental: (§2) The plasma concentration–time profiles of THY1773 were analyzed by a non‐compartmental analysis with PK analysis software Phoenix WinNonlin® (version 6.1; Certara), and the PK parameters were calculated. The fraction excreted in urine was calculated by dividing the amount of THY1773 excreted in urine by the administered dose.
# A first‐in‐human, randomized, double‐blind, placebo‐controlled, adaptive, single‐ascending dose study was conducted to evaluate the safety, tolerability, and PK of single oral doses of TS‐121 capsules in the United States. This study was conducted in accordance with the ethical principles of the Declaration of Helsinki, International Council for Harmonization Good Clinical Practice Guidelines, and the United States Food and Drug Administration Code of Federal Regulations. The study was approved by an institutional ethical review board. All subjects provided written informed consent before participating in the study. Sixty‐eight healthy male or female volunteers were enrolled and received a single oral dose of either TS‐121 capsules (0.5, 2.5, 4, 8, 15, 30, or 50 mg as THY1773/day) or placebo in a 3:1 ratio in a fasted state.
# Blood samples were collected at predose and 0.25, 0.5, 0.75, 1, 1.5, 2, 3, 4, 6, 8, 10, 12, 24, 36, and 48 h postdose. Urine samples were collected before dosing and at the following time intervals after dosing: 0–6, 6–12, 12–24, 24–36, and 36–48 h. THY1773 plasma and urine concentrations were determined by validated LC‐MS/MS methods. PK parameters were evaluated following the method as described in Section 2.5 PK analysis.
# [3] = Distribution into brain and pituitary gland in rats; format: in vivo, rat; conditions: 1 h after oral 1 mg/kg
# Experimental: The PK and urinary excretion of THY1773 in rats (1 mg/kg) and dogs (0.5 mg/kg) under fasted conditions were evaluated following intravenous or oral administration of THY1773. THY1773 was dissolved in 10% (vol/vol) hydroxypropyl‐β‐cyclodextrin at pH 4 for intravenous administration, or suspended in 0.5% (wt/vol) methyl cellulose 400 for oral administration. After a single intravenous or oral administration of THY1773, blood samples were collected into tubes containing EDTA‐2K as an anticoagulant. The scheduled time points were predose (dog only), 5 (intravenous only), 15, 30 min, 1, 2, 4, 8, 12, and 24 h postdose. Plasma was separated by centrifugation. Urine samples were collected into bottles set on ice for 24 h after intravenous administration of THY1773. Plasma and urine samples were treated with 4 volumes of acetonitrile/methanol (9:1, vol/vol) containing the IS. After centrifugation (3639 × g, 4°C, 10 min) to remove precipitated proteins, the supernatant was subjected to LC‐MS/MS analysis. The distributions of THY1773 into brain and pituitary gland in rats were investigated after a single oral administration of THY1773 (1 mg/kg). Blood was collected from the tail vein into tubes containing EDTA‐2K at 1 h after a single oral administration of THY1773, and the plasma was separated by centrifugation (12000 × g, 4°C, 3 min). […]
# [4] = PK and urinary excretion in rats; format: in vivo, rat
# Experimental: The PK and urinary excretion of THY1773 in rats (1 mg/kg) and dogs (0.5 mg/kg) under fasted conditions were evaluated following intravenous or oral administration of THY1773. THY1773 was dissolved in 10% (vol/vol) hydroxypropyl‐β‐cyclodextrin at pH 4 for intravenous administration, or suspended in 0.5% (wt/vol) methyl cellulose 400 for oral administration. After a single intravenous or oral administration of THY1773, blood samples were collected into tubes containing EDTA‐2K as an anticoagulant. The scheduled time points were predose (dog only), 5 (intravenous only), 15, 30 min, 1, 2, 4, 8, 12, and 24 h postdose. Plasma was separated by centrifugation. Urine samples were collected into bottles set on ice for 24 h after intravenous administration of THY1773. Plasma and urine samples were treated with 4 volumes of acetonitrile/methanol (9:1, vol/vol) containing the IS. After centrifugation (3639 × g, 4°C, 10 min) to remove precipitated proteins, the supernatant was subjected to LC‐MS/MS analysis. The distributions of THY1773 into brain and pituitary gland in rats were investigated after a single oral administration of THY1773 (1 mg/kg). Blood was collected from the tail vein into tubes containing EDTA‐2K at 1 h after a single oral administration of THY1773, and the plasma was separated by centrifugation (12000 × g, 4°C, 3 min). After blood collection, the brain and pituitary gland were excised followed by homogenization with approximately 4 volumes of distilled water. Plasma, brain, and pituitary samples were treated with 4 volumes of acetonitrile/methanol (9:1, vol/vol) containing the IS and centrifuged (3639 × g, 4°C, 10 min). Aliquots of the supernatant were subjected to LC‐MS/MS analysis.
# as §2
# depressive-like behavior = test system: depressive-like behavior; design: method as in Kamiya et al., 2020; conditions: ref Kamiya et al., 2020; cited from earlier work
# [5] = Plasma protein binding by equilibrium dialysis, dog plasma; format: in vitro ADME; conditions: 300 ng/ml
# Experimental: as §1
# [6] = human, average over dose range 0.5 to 50 mg
# [7] = human, single oral 30 mg, fasted, mean
# [8] = male rats, iv 1 mg/kg, mean (%CV), n=3
# [9] = male rats, po 1 mg/kg, mean (%CV), n=3
compound,measurement,setting,value
CC(C)NC(=O)Cn1c(-c2cccc(Cl)c2)nn(-c2ccc(CCN3CCOCC3)cc2)c1=O [THY1773],Plasma protein binding,[1],89.2%
same,Observed CLrenal compared with predicted value,[2]; human,lower than the predicted value
same,Observed oral blood CL as share of hepatic blood flow,[2]; human,2.6 % of the hepatic blood flow
same,Apparent volume of distribution during the terminal phase,[2]; [6],40.6 L
same,Oral CLtotal,[2]; [6],1.32 L/h
same,Dose linearity of PK,"[2]; human, dose range 0.5–50 mg",linear PK
same,AUC0‐∞,[2]; [7],21340 ng·h/mL
same,CLpo,[2]; [7],1.52 L/h
same,Cmax,[2]; [7],949 ng/mL
same,Vdz/F,[2]; [7],43.6 L
same,tmax,"[2]; human, single oral 30 mg, fasted, median",1.3 h and 1.27 h
same,Urinary excretion of unchanged drug,"[2]; human, within 48 h post oral dosing, average over dose range",4.2%
same,Observed human CLtotal/F,"[2]; oral, phase 1 study",0.287 mL/min/kg
same,Observed human Vdz/F,"[2]; oral, phase 1 study",0.528 L/kg
same,Concentration ratio of brain to plasma,[3],0.2
same,Concentration ratio of pituitary gland to plasma,[3],4.7
same,AUC0‐∞,[4]; [8],762 (14.9) h·ng/ml
same,CLtotal,[4]; [8],1330 (13.7) ml/h/kg
same,Vdss,[4]; [8],2220 (5.7) ml/kg
same,t1/2,[4]; [8],1.38 (2.3) h
same,F (oral bioavailability),"[4]; male rats, po 1 mg/kg, 1 mg/kg",46.6%
same,AUC0‐∞,[4]; [9],355 (13.5) h·ng/ml
same,Cmax,[4]; [9],136 (11.8) ng/ml
same,t1/2,[4]; [9],1.45 (5.5) h
same,tmax,[4]; [9],0.833 (34.6) h
same,CLrenal compared with fu × GFR,[4]; rats,comparable to fu × GFR
same,CLtotal as share of hepatic blood flow,"[4]; rats, single intravenous administration",approximately 30 % of hepatic blood flow
same,Urinary excretion of unchanged drug,"[4]; rats, within 24 h post intravenous dosing",4.6%
same,Effect on depressive-like behavior induced by repeated corticosterone injection,depressive-like behavior,significantly improved
same,Plasma protein binding,[5],89.6%
